In patent US10829478B2, “5-[3-[piperazin-1-yl]-3-oxo-propyl]-imidazolidine-2,4-dione derivatives as ADAMTS 4 and 5 inhibitors for treating e.g. osteoarthritis” (Galapagos NV, priority 2016, dated 2020):

Key:
human TACE = human TACE (Homo sapiens (Human), UniProt P78536); experiment: biochemical
Procedure: Finally, the fluorescence is read on the Envision (Perkin Elmer) after an incubation of 75 min at room temperature (Excitation 485 nm, Emission 530).

human ADAMTS6 = human ADAMTS6 (Homo sapiens (Human), UniProt Q9UKP5); experiment: hADAMTS-6 fluorescent based protease assay (520 MMP FRET substrate XII); format: biochemical; settings: 37° C. for 2 h; read-out: hADAMTS-6 potency IC50
Summary of the method: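 ADAMTS6 (0.73 nM final) in 25 mM Tris pH 8.0, 0.05% CHAPS, 2.5 mM CaCl2 with compound dilution series (top 20 μM, 1/5 steps). Reaction started with 520 MMP FRET Substrate XII, incubated 2 h at 37 °C. Substrate cleavage read by fluorescence ex485/em530; IC50 determined.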

human ADAMTS4 [1] = target: T1, human ADAMTS4 (Homo sapiens (Human), UniProt O75173); experiment: hADAMTS-4 TBIS-1 cleavage assay, Protocol 1; format: biochemical; settings: 60 min at room temperature, read-out: ADAMTS4 potency IC50
Procedure: (§2) The reaction is initiated by adding to the assay plate TBIS-1 (10 μL, 4.5 μM, Anaspec) in the same buffer.
Finally, the fluorescence is read on the Envision (Perkin Elmer) after an incubation of 60 min at room temperature (Excitation 485 nm, emission 535).

human ADAMTS-5 [2] = target: T2, human ADAMTS-5 (Homo sapiens (Human), UniProt Q9UNA0); experiment: hADAMTS-5 TBIS-1 cleavage assay, Protocol 2; format: biochemical; settings: 45 min at 37° C., read-out: ADAMTS5 potency IC50
rnADAMTS-5 (1-564-6H) = rnADAMTS-5 (1-564-6H) (Rattus norvegicus (Rat), UniProt Q6TY19); experiment: Rat ADAMTS-5 TBIS-1 cleavage assay; format: biochemical; settings: 120 min at 37° C.; read-out: Rat ADAMTS-5 potency IC50
human MMP13 [3] = target: T3, human MMP13 (Homo sapiens (Human), UniProt P45452); experiment: hMMP13 assay, Protocol 1 (390 MMP FRET Substrate I, Chemicon enzyme); format: biochemical; settings: Protocol 1, human MMP13 (Chemicon), read-out: hMMP-13 potency IC50
Procedure: (§1) Human MMP13 is preactivated by incubated the enzyme in the same buffer complemented with 1 mM freshly prepared p-Aminophenylmercuric acetate (AMPA) for 1 h at 37° C.

human ADAMTS4 [4] = target: T1, human ADAMTS4; experiment: hADAMTS-4 TBIS-1 cleavage assay, Protocol 2; format: biochemical
human ADAMTS-5 [5] = target: T2, human ADAMTS-5; experiment: hADAMTS-5 TBIS-1 cleavage assay, Protocol 3; format: biochemical; settings: 90 min at 37° C., read-out: hADAMTS-5 potency IC50
Procedure: as §2
Finally, the fluorescence is read on the Envision (Perkin Elmer) after an incubation of 90 min at 37° C. (Excitation 485 nm, emission 530).

human MMP14 = human MMP14 (Homo sapiens (Human), UniProt P50281); experiment: hMMP14 assay (390 MMP FRET Substrate I); format: biochemical; settings: human MMP14 (Biomol), read-out: hMMP-14 potency IC50
Procedure: The basis for the assay is the cleavage of the substrate 390 MMP FRET Substrate I (Anaspec Cat #AS-27076) by human MMP14 (Biomol, Cat #SE-259).
The reaction is initiated by adding to the assay plate 390 MMP FRET Substrate I (10 μL, 2.5 μM) in the same buffer.
Finally, the fluorescence is read on the Envision (Perkin Elmer) after an incubation of 60 min at room temperature (Excitation 485 nm, Emission 530).

human MMP13 [6] = target: T3, human MMP13; experiment: hMMP13 assay, Protocol 2 (390 MMP FRET Substrate I, Enzo enzyme); format: biochemical; settings: Protocol 2, human MMP13 (Enzo Life Sciences), read-out: hMMP-13 potency IC50
Procedure: as §1

[7] = Protocol 2, 180 min at 37° C., read-out: ADAMTS4 potency IC50

T2 sequence (Q9UNA0 262-930): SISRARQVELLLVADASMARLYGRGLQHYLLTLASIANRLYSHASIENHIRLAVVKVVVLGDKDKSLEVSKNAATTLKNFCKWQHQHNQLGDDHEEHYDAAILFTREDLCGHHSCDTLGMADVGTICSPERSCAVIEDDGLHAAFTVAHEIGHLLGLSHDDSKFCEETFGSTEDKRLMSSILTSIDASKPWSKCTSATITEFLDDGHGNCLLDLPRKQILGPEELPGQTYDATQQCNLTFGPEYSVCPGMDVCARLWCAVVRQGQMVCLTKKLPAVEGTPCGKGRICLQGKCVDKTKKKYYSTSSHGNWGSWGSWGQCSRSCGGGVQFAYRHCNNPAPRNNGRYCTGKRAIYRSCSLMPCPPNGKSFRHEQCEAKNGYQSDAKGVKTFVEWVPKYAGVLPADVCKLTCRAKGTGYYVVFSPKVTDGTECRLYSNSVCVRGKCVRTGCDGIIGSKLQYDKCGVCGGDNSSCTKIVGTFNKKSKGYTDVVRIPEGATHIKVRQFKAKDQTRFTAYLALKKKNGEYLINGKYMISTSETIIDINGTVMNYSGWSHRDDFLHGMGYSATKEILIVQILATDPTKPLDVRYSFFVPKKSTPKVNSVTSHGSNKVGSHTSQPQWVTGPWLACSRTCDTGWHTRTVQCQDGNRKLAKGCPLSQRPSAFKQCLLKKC
T1 sequence (O75173 213-837): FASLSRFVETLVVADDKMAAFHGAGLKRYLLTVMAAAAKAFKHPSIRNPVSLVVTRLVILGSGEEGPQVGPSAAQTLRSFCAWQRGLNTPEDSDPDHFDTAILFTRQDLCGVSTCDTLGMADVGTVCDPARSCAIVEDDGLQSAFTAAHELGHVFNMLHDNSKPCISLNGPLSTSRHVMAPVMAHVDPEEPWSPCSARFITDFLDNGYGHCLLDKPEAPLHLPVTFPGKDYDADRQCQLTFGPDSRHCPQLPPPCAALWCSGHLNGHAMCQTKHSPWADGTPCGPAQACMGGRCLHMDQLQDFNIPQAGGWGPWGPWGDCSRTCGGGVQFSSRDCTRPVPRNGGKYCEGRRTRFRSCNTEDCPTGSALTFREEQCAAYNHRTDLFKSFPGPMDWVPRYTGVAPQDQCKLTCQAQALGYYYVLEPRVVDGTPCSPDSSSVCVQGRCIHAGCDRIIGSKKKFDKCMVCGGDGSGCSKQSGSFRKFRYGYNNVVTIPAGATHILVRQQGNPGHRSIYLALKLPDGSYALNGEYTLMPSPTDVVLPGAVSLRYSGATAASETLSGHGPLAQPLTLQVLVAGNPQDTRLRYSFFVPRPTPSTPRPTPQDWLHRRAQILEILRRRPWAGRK
Chain of human ADAMTS6 (Q9UKP5 other isoform, or with tags, fused parts or gaps): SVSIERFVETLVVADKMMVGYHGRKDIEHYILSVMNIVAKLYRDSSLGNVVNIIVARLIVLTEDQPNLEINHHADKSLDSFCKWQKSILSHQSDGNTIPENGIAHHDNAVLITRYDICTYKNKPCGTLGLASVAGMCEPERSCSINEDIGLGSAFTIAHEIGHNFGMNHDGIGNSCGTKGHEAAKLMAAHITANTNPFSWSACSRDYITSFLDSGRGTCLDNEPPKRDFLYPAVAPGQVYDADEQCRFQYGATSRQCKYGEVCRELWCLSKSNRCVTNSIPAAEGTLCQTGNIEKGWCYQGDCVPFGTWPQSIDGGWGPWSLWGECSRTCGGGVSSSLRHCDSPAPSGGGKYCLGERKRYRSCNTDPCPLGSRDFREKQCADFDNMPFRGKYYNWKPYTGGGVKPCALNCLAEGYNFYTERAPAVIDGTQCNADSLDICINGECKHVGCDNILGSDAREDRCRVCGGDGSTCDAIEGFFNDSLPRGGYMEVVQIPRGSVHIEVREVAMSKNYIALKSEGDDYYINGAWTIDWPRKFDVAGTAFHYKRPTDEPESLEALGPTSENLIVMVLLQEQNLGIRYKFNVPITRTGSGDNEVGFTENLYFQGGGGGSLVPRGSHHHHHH
Chain of rnADAMTS-5 (1-564-6H) (Q6TY19 entry or part of it): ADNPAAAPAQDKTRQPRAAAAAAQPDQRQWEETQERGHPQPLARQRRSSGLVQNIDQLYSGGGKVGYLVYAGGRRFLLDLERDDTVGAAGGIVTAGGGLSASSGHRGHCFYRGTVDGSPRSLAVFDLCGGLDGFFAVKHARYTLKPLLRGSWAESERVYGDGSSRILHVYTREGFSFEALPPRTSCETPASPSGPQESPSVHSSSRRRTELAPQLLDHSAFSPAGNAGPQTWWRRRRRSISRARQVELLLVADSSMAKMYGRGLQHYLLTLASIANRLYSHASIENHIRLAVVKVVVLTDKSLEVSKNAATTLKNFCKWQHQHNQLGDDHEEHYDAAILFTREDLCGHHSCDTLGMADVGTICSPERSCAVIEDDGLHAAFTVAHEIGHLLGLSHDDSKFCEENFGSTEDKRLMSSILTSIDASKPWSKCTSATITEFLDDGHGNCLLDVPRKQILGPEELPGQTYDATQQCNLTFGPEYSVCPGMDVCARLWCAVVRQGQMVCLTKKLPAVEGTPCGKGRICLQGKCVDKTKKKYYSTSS
Chain of human TACE (P78536 215-671): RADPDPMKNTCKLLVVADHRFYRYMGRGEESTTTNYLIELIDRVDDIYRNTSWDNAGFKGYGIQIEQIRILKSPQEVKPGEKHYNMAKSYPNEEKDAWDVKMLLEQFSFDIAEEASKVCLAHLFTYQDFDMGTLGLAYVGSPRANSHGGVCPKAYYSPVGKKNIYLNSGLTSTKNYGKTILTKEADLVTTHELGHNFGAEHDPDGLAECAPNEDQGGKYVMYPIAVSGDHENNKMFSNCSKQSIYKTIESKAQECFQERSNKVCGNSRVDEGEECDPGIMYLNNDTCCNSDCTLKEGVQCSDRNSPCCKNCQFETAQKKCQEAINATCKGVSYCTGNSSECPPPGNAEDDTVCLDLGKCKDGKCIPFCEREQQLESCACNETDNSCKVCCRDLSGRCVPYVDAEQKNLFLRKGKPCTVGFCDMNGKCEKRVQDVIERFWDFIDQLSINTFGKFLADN

Row | SMILES | IC50 (human TACE) [nM] | IC50 (human ADAMTS6) [nM] | IC50 (human ADAMTS4 [1]) [nM] | IC50 (human ADAMTS-5 [2]) [nM] | IC50 (rnADAMTS-5 (1-564-6H)) [nM] | IC50 (human MMP13 [3]) [nM] | IC50 (human ADAMTS4 [4]; [7]) [nM] | IC50 (human ADAMTS-5 [5]) [nM] | IC50 (human ADAMTS4 [4]) [nM] | IC50 (human MMP14) [nM] | IC50 (human MMP13 [6]) [nM]
1 | COc1cccc(N2CCN(C(=O)CCC3(C)NC(=O)NC3=O)CC2)c1 (stereo not drawn) [Cpd 1, 5-[3-[4-(3-methoxyphenyl)piperazin-1-yl]-3-oxo-propyl]-5-methyl-imidazolidine-2,4-dione] | > 100 | > 100 | > 100 | > 100 |  |  |  |  |  |  | 
2 | COc1cccc(N2CCN(C(=O)CCC3(C4CC4)NC(=O)NC3=O)CC2)c1 (stereo not drawn) [Cpd 2, 5-cyclopropyl-5-[3-[4-(3-methoxyphenyl)piperazin-1-yl]-3-oxo-propyl]imidazolidine-2,4-dione] | > 100 | > 100 | 25 to 50 | > 100 | > 100 |  |  |  |  |  | 
3 | CC1(CCC(=O)N2CCN(c3ccc(OC(F)(F)F)cc3)CC2)NC(=O)NC1=O (stereo not drawn) [Cpd 3, 5-methyl-5-[3-oxo-3-[4-[4-(trifluoromethoxy)phenyl]piperazin-1-yl]propyl]imidazolidine-2,4-dione] | > 100 | > 100 |  | > 100 |  | > 100 | > 100 |  |  |  | 
4 | CC1(CCC(=O)N2CCN(c3ccccc3OC(F)(F)F)CC2)NC(=O)NC1=O (stereo not drawn) [Cpd 4, 5-methyl-5-[3-oxo-3-[4-[2-(trifluoromethoxy)phenyl]piperazin-1-yl]propyl]imidazolidine-2,4-dione] |  | > 100 |  | > 100 |  |  |  | > 100 |  |  | 
5 | COc1ccc(N2CCN(C(=O)CCC3(C)NC(=O)NC3=O)CC2)cc1 (stereo not drawn) [Cpd 5, 5-[3-[4-(4-methoxyphenyl)piperazin-1-yl]-3-oxo-propyl]-5-methyl-imidazolidine-2,4-dione] |  | > 100 |  | > 100 |  |  |  |  |  |  | 
6 | COc1cccc(N2CCN(C(=O)CCC3(c4cccnc4)NC(=O)NC3=O)CC2)c1 (stereo not drawn) [Cpd 6, 5-[3-[4-(3-methoxyphenyl)piperazin-1-yl]-3-oxo-propyl]-5-(3-pyridyl)imidazolidine-2,4-dione] | > 100 | > 100 |  | > 100 | > 100 | > 100 |  |  |  |  | 
7 | COc1ccccc1N1CCN(C(=O)CCC2(C)NC(=O)NC2=O)CC1 (stereo not drawn) [Cpd 7, 5-[3-[4-(2-methoxyphenyl)piperazin-1-yl]-3-oxo-propyl]-5-methyl-imidazolidine-2,4-dione] |  | > 100 |  | > 100 |  |  |  | > 100 |  |  | 
8 | COc1cccc(N2CCN(C(=O)CCC3(c4ccccn4)NC(=O)NC3=O)CC2)c1 (stereo not drawn) [Cpd 8, 5-[3-[4-(3-methoxyphenyl)piperazin-1-yl]-3-oxo-propyl]-5-(2-pyridyl)imidazolidine-2,4-dione] | > 100 | > 100 |  | > 100 | > 100 | > 100 |  |  | 50 to 100 |  | 
9 | COc1cc(N2CCN(C(=O)CCC3(C)NC(=O)NC3=O)CC2)ccc1F (stereo not drawn) [Cpd 9, 5-[3-[4-(4-fluoro-3-methoxy-phenyl)piperazin-1-yl]-3-oxo-propyl]-5-methyl-imidazolidine-2,4-dione] | > 100 | 50 to 100 |  | > 100 | > 100 | > 100 |  | > 100 |  |  | 
10 | COc1cc(N2CCN(C(=O)CCC3(C)NC(=O)NC3=O)CC2)ccc1Cl (stereo not drawn) [Cpd 10, 5-[3-[4-(4-chloro-3-methoxy-phenyl)piperazin-1-yl]-3-oxo-propyl]-5-methyl-imidazolidine-2,4-dione] | > 100 | 25 to 50 |  | > 100 | > 100 | > 100 | > 100 | > 100 |  |  | 
11 | COc1cc(OC)cc(N2CCN(C(=O)CCC3(C)NC(=O)NC3=O)CC2)c1 (stereo not drawn) [Cpd 11, 5-[3-[4-(3,5-dimethoxyphenyl)piperazin-1-yl]-3-oxo-propyl]-5-methyl-imidazolidine-2,4-dione] | > 100 | > 100 |  | > 100 | > 100 | > 100 | > 100 |  |  |  | 
12 | COc1cc(F)cc(N2CCN(C(=O)CCC3(C)NC(=O)NC3=O)CC2)c1 (stereo not drawn) [Cpd 12, 5-[3-[4-(3-fluoro-5-methoxy-phenyl)piperazin-1-yl]-3-oxo-propyl]-5-methyl-imidazolidine-2,4-dione] | > 100 | > 100 |  | > 100 | > 100 | > 100 |  |  |  |  | 
13 | COc1cc(Cl)cc(N2CCN(C(=O)CCC3(C)NC(=O)NC3=O)CC2)c1 (stereo not drawn) [Cpd 13, 5-[3-[4-(3-chloro-5-methoxy-phenyl)piperazin-1-yl]-3-oxo-propyl]-5-methyl-imidazolidine-2,4-dione] | > 100 | 25 to 50 |  | > 100 | > 100 | > 100 |  |  |  |  | 
14 | COc1cc(N2CCN(C(=O)CCC3(C)NC(=O)NC3=O)CC2)cc(F)c1F (stereo not drawn) [Cpd 14, 5-[3-[4-(3,4-difluoro-5-methoxy-phenyl)piperazin-1-yl]-3-oxo-propyl]-5-methyl-imidazolidine-2,4-dione] | > 100 | 25 to 50 |  | > 100 | > 100 | > 100 | > 100 | > 100 |  |  | 
15 | COc1cc(F)cc(N2CCN(C(=O)CCC3(C4CC4)NC(=O)NC3=O)CC2)c1 (stereo not drawn) [Cpd 15, 5-cyclopropyl-5-[3-[4-(3-fluoro-5-methoxy-phenyl)piperazin-1-yl]-3-oxo-propyl]imidazolidine-2,4-dione] | > 100 | > 100 |  | 50 to 100 | 50 to 100 | > 100 |  | 50 to 100 | 50 to 100 |  | 
16 | CCOc1cccc(N2CCN(C(=O)CCC3(C)NC(=O)NC3=O)CC2)c1 (stereo not drawn) [Cpd 16, 5-[3-[4-(3-ethoxyphenyl)piperazin-1l-yl]-3-oxo-propyl]-5-methyl-imidazolidine-2,4-dione] |  | > 100 |  | > 100 |  |  |  |  |  |  | 
17 | COc1cc(N2CCN(C(=O)CCC3(C4CC4)NC(=O)NC3=O)CC2)ccc1F (stereo not drawn) [Cpd 17, 5-cyclopropyl-5-[3-[4-(4-fluoro-3-methoxy-phenyl)piperazin-1-yl]-3-oxo-propyl]imidazolidine-2,4-dione] | > 100 | > 100 |  | > 100 | > 100 | > 100 | > 100 | > 100 |  |  | 
18 | COc1cc(N2CCN(C(=O)CCC3(C4CC4)NC(=O)NC3=O)CC2)cc(F)c1F (stereo not drawn) [Cpd 18, 5-cyclopropyl-5-[3-[4-(3,4-difluoro-5-methoxy-phenyl)piperazin-1-yl]-3-oxo-propyl]imidazolidine-2,4-dione] | > 100 | 0.001 to 25 |  | 50 to 100 | > 100 | > 100 | > 100 | 50 to 100 |  | > 100 | > 100
19 | COc1cc(N2CCN(C(=O)CCC3(C)NC(=O)NC3=O)C[C@@H]2C)cc(Cl)c1F (stereo partly drawn) [Cpd 53, 5-[3-[(3 S)-4-(3-chloro-4-fluoro-5-methoxy-phenyl)-3-methyl-piperazin-1l-yl]-3-oxo-propyl]-5-methyl-imidazolidine-2,4-dione] | > 100 | 0.001 to 25 |  |  | > 100 | > 100 | > 100 | 50 to 100 |  | > 100 | > 100
20 | COc1cc(N2CCN(C(=O)[C@@H](CO)C[C@@]3(C)NC(=O)NC3=O)CC2)cc(F)c1F [Cpd 56, (5R)-5-[(2R)-3-[4-(3,4-difluoro-5-methoxy-phenyl)piperazin-1-yl]-2-(hydroxymethyl)-3-oxo-propyl]-5-methyl-imidazolidine-2,4-dione] | > 100 | 0.001 to 25 |  |  | 25 to 50 |  |  | 25 to 50 | 25 to 50 | > 100 | > 100
21 | COC[C@]1(C[C@H](C)C(=O)N2CCN(c3cc(F)c(F)c(OC)c3)CC2)NC(=O)NC1=O [Cpd 59, (5 S)-5-[(2S)-3-[4-(3,4-difluoro-5-methoxy-phenyl)piperazin-1-yl]-2-methyl-3-oxo-propyl]-5-(methoxymethyl)imidazolidine-2,4-dione] | > 100 | 0.001 to 25 |  |  | 0.001 to 25 |  |  | 0.001 to 25 | 25 to 50 | > 100 | > 100
22 | C[C@H]1CN(C(=O)CC[C@@]2(C)NC(=O)NC2=O)CCN1c1ccc(Cl)c(OC(F)(F)F)c1 [Cpd 86, (5R)-5-[3-[(3S)-4-[4-chloro-3-(trifluoromethoxy)phenyl]-3-methyl-piperazin-1-yl]-3-oxo-propyl]-5-methyl-imidazolidine-2,4-dione] | > 100 | 0.001 to 25 |  |  | > 100 |  | > 100 | > 100 |  | > 100 | > 100
